According to US7018796B2, “Preincubation assay methods” (Shionogi & Co., Ltd., priority 2000, dated 2006):

Biological target: T1, HCV RNA-dependent RNA polymerase (Hepatitis C virus genotype 1a, UniProt P27958)
T1 construct: HCV RNA-dependent RNA polymerase is encoded in the NS5B (nonstructural protein 5B) region of HCV; made in house; host or cells: insect cells or E. coli
Test: Pre-incubation assay method with 3H-UTP (Example 1)
Type: biochemical
Procedure: A HCV RNA-dependent RNA polymerase, template RNA, primer RNA and Mg ion (Mg^2+) are pre-incubated at approximately 25° C. for approximately 1 hour. After that, substrate RNA and a test substance are added to start an enzyme reaction and measure an enzyme activity. IC50 value can be calculated by comparing with an enzyme activity measured in the absence of a test substance as well as the above prior method. An inhibitor can be selected by comparing IC50. An example of a procedure of this method is shown in the later described Example 1.
A cDNA encoding HCV RNA-dependent RNA polymerase was made by use of HCV positive human plasma and HCV RNA-dependent RNA polymerase was expressed using the insect cells or the E. coli. HCV RNA-dependent RNA polymerase in the cell extract was purified by use of an anion exchange chromatography, a heparin affinity chromatography, a polyU affinity chromatography, a cation exchange chromatography and gel filtration chromatography. The purification was performed at 4° C. and Tris buffer (pH 7.5) containing ethylenediaminetetraacetic acid (1 mM), dithiothreitol (10 mM) and glycerol (20%) was used. The enzyme purified was stored at 4° C. until use for the assays.
• 1) The buffer I ^1) (10.5 μl) containing Tris-HCl (100 mM, pH 7.5), MgCl2 (25 mM), dithiothreitol (5 mM), KCl (125 mM) and ethylenediaminetetraacetic acid (5 mM) was transferred to a polypropylene tube and then poly(A)^2) solution (100 μg/ml, 10.5 μl), oligo(U)12 ^3) solution (1 μg/ml, 10.5 μl) and water (8 μl) were added into the tube and mixed. • 2) Next, HCV RNA-dependent RNA polymerase (10.5 μl) was added into the tube and pre-incubated at 25° C. for […]. • 3) The enzyme solution pre-incubated (50 μl) was added to a test compound (5.26 μl/well) dissolved with dimethyl sulfoxide or water in a well of a 96-wells microtiter plate. • 4) Additionally, the buffer II (10.6 μl) containing Tris-HCl (100 mM, pH 7.5), MgCl2 (25 mM), dithiothreitol (5 mM), KCl (125 mM), ethylenediaminetetraacetic acid (5 mM) and UTP • 4) (2.1 μM, 1 μCi ^3H-UTP), was mixed with water (39.4 μl). The mixture (50 μl) was added into the well and mix, and then the enzyme reaction was performed at 25° C. for 30 min. • 5) After enzyme reaction for 30 min, the enzyme reaction was stopped by adding disodium ethylenediaminetetraacetic acid (50 mM, 50 μl). • 6) By use of the cell-harvester, all volume of the enzyme reaction sample was transferred onto a filtermat bound with diethylaminoethyl base (referred to as DEAE-filtermat) and washed twice for 10 sec with sodium phosphate buffer (0.25 M, pH 7.0) and once for 10 sec with de-ionized water. • 7) The DEAE-filtermat was dried at 95° C. for 15 min and transferred into a sample bag with liquid scintillater (10 ml), and then a sample bag was sealed. • 8) The radio activity was measured by a scintillation counter. • 9) The inhibitory rate was calculated from the radioactivity measured (ccpm) as follows. [formula]
The concentration of compound at 50% inhibition (IC50 value) was calculated from the compound concentration used and the inhibitory rate calculated.
When use of a compound at a μg/ml results in A % inhibition and use of a compound at β μg/ml results in B % inhibition on condition of A≧50>B the IC50 value is obtained by the calculation as follows. IC50 (μg/ml)=10^[(50−B)/(A−B)×(log^α^−log^β^)+log^β^]

[1] = with pre-incubation, I-1 0.5 μg/ml, 3′-dUTP 0.7 μM, A 100 μg/ml, B 50 μg/ml, C 25 μg/ml

T1 sequence (P27958 2421-3011): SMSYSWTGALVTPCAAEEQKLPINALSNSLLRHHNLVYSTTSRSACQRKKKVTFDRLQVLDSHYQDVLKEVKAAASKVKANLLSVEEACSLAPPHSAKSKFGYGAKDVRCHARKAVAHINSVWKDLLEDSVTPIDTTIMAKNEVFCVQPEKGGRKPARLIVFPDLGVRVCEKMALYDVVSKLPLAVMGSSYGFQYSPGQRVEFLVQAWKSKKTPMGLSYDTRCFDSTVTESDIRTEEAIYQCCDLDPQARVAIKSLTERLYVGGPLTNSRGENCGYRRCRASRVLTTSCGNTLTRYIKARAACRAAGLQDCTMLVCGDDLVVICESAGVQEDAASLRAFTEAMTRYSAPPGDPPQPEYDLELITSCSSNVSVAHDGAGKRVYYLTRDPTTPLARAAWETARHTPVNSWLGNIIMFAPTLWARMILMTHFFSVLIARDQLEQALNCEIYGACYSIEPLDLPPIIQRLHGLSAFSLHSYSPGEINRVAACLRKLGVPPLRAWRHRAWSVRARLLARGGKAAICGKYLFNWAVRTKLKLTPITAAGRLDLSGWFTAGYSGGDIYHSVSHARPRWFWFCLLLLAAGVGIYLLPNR

Row | Structure (SMILES) | Judgement in the pre-incubation method (positive / negative) (with pre-incubation) | Inhibitory rate (Table 2) [1] | Enzyme inhibition rate in a pre-incubation assay method (FIG. 5) (with pre-incubation, same concentrations as) | inhibition at 100 µg/mL (100 μg/ml, pre-incubation 25° C. 60 min, method of Example 1, read-out: Inhibition rate at a concentration of 100 μg/ml) | IC50 (pre-incubation 25° C. 60 min, method of Example 1) | inhibition at 0.5 µg/mL (with pre-incubation, I-1 0.5 μg/ml, 3′-dUTP 0.7 μM, A 100 μg/ml, B 50 μg/ml, C 25 μg/ml, read-out: Inhibitory rate (Table 2))
1 | CCCCC1=N/C(=C\c2ccccc2OCC(=O)O)C(=O)N1Cc1ccc(-c2ccccc2-c2nnn[nH]2)cc1 [Compound C] | negative result | 2% | – | – | – | –
2 | O=c1ccn([C@@H]2O[C@H](COP(=O)(O)OP(=O)(O)OP(=O)(O)O)C[C@H]2O)c(=O)[nH]1 [3′-dUTP, 3′-deoxyuridine triphosphate] | – | 79% | does not change | – | – | –
3 | O=C(O)/C(O)=C/C(=O)c1cccc(O)c1 [Compound I-1] | positive result | – | – | > 99% | 1920 nM | 62%
4 | Cc1oc(-c2ccccc2)nc1CCOc1ccc(C=C2C(=O)NC(=O)NC2=O)cc1 [Compound A] | negative | 19% | – | – | – | –
5 | O=C1NC(=O)C(=Cc2ccc(OCCc3cccc4ccccc34)cc2)C(=O)N1 [Compound B] | negative | 1% | – | – | – | –
